Laboratory results: the supplement of paper PMC10307832

Key:
Test in all cases: relative viability (nuclei count vs DMSO), 5 days (fraction); higher = more cells survive
MLN4924 + Trametinib = compound: NS(=O)(=O)OC[C@@H]1C[C@@H](n2ccc3c(N[C@H]4CCc5ccccc54)ncnc32)C[C@@H]1O [MLN4924] + CC(=O)Nc1cccc(-n2c(=O)n(C3CC3)c(=O)c3c(Nc4ccc(I)cc4F)n(C)c(=O)c(C)c32)c1 [Trametinib] (partner 0.02 µM)
Outline: (§1)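 Relative viability equals treated-well nuclei counts divided by vehicle-well nuclei counts. Counts came from 4× images of lung cancer cell lines grown in 1536-well plates for 5 days after pin-tool dosing on the day after seeding. Dosing used one drug alone or a fixed anchor-drug dose plus five library-drug doses (not always all listed) in √10 steps, and values are medians of duplicate plates.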

MLN4924 + Luminespib = compound: NS(=O)(=O)OC[C@@H]1C[C@@H](n2ccc3c(N[C@H]4CCc5ccccc54)ncnc32)C[C@@H]1O [MLN4924] + CCNC(=O)c1noc(-c2cc(C(C)C)c(O)cc2O)c1-c1ccc(CN2CCOCC2)cc1 [Luminespib] (partner 0.01 µM)
Outline: as §1

GSK126 + Pictilisib = compound: CC[C@H](C)N1C=C(C2=C(C=C(C=C21)C3=CN=C(C=C3)N4CCNCC4)C(=O)NCC5=C(C=C(NC5=O)C)C)C [GSK126] + CS(=O)(=O)N1CCN(Cc2cc3nc(-c4cccc5[nH]ncc45)nc(N4CCOCC4)c3s2)CC1 [Pictilisib] (partner 1 µM)
Outline: as §1

GSK126 + Luminespib = compound: CC[C@H](C)N1C=C(C2=C(C=C(C=C21)C3=CN=C(C=C3)N4CCNCC4)C(=O)NCC5=C(C=C(NC5=O)C)C)C [GSK126] + CCNC(=O)c1noc(-c2cc(C(C)C)c(O)cc2O)c1-c1ccc(CN2CCOCC2)cc1 [Luminespib] (partner 0.01 µM)
Outline: as §1

UMC-11
relative viability (MLN4924 + Trametinib; first compound 0.04 µM): 0.487 | relative viability (MLN4924 + Trametinib; first compound 0.1265 µM): 0.367 | relative viability (MLN4924 + Trametinib; first compound 0.4 µM): 0.253 | relative viability (MLN4924 + Trametinib; first compound 1.265 µM): 0.115 | relative viability (MLN4924 + Trametinib; first compound 4 µM): 0.142 | relative viability (MLN4924 + Luminespib; first compound 0.04 µM): 0.598 | relative viability (MLN4924 + Luminespib; first compound 0.1265 µM): 0.351 | relative viability (MLN4924 + Luminespib; first compound 0.4 µM): 0.285 | relative viability (MLN4924 + Luminespib; first compound 1.265 µM): 0.17 | relative viability (MLN4924 + Luminespib; first compound 4 µM): 0.182 | relative viability (GSK126 + Pictilisib; first compound 0.08 µM): 0.91 | relative viability (GSK126 + Pictilisib; first compound 0.253 µM): 0.85 | relative viability (GSK126 + Pictilisib; first compound 0.8 µM): 0.882 | relative viability (GSK126 + Pictilisib; first compound 2.53 µM): 0.829 | relative viability (GSK126 + Pictilisib; first compound 8 µM): 0.714 | relative viability (GSK126 + Luminespib; first compound 0.08 µM): 1.19 | relative viability (GSK126 + Luminespib; first compound 0.253 µM): 1.07 | relative viability (GSK126 + Luminespib; first compound 0.8 µM): 1.04 | relative viability (GSK126 + Luminespib; first compound 2.53 µM): 1.07 | relative viability (GSK126 + Luminespib; first compound 8 µM): 1.31
